Drawing on ChEMBL document CHEMBL3400041, “Pyridinic analog of the natural product (-)-spectaline as potential adjuvant for the treatment of central nervous system disorders” (Bioorg Med Chem Lett, 2015), this text covers inhibition and Activity for 5 compounds.

Calls of active or inactive are those of the source. The calls are words filed in the database; no cut-off is given here.

Series [1] deals with Mus musculus. The series is described as follows: Antischizophrenic activity in mouse assessed as inhibition of apomorphine-induced climbing behavior at 5 mg/kg, po. The series is classed as functional, organism-based. Also noted: dose 5 mg/kg.
Series [2] has as its system Mus musculus. The series is described as follows: Antidepressant-like activity in mouse assessed as decrease in immobility time at 5 to 10 mg/kg, po by forced swimming test. In kind it is functional, organism-based.
The subject of series [3] is Mus musculus. As to the kind of experiment: Antischizophrenic activity in mouse assessed as inhibition of apomorphine-induced climbing behavior at 10 mg/kg, po. In kind it is functional, organism-based. Also noted: dose 10 mg/kg.
For series [4], the system named is Mus musculus. The series is described as follows: Effect on CNS activity in mouse assessed as reduction in number of groomings at 10 mg/kg, po by spontaneous locomotor activity test. The series is classed as functional, organism-based. Also on record: dose 10 mg/kg. As to conditions: Central nervous system.
Series [5] has as its system Mus musculus. As to the kind of experiment: Toxicity in mouse assessed as rearing behavior at 10 mg/kg, po by spontaneous locomotor activity test. In kind it is organism-based. Also on record: dose 10 mg/kg, route oral. As to conditions: in vivo.
The test system of series [6] is Mus musculus. The series is described as follows: Effect on CNS activity in mouse assessed as reduction in exploratory behaviour at 10 mg/kg, po by spontaneous locomotor activity test. The series is classed as functional, organism-based. Also on record: dose 10 mg/kg. The following applies: Central nervous system.
The test system of series [7] is Mus musculus. The series is described as follows: Antidepressant-like activity in mouse assessed as decrease in immobility time at 10 mg/kg, po by forced swimming test. The series is classed as functional, organism-based. Also on record: dose 10 mg/kg.
For series [8], the system named is Mus musculus. As to the kind of experiment: Antischizophrenic activity in mouse assessed as inhibition of apomorphine-induced climbing behavior at 5 to 10 mg/kg, po. In kind it is functional, organism-based.

As for `CN1CCN(C2=Nc3cc(Cl)ccc3Nc3ccccc32)CC1`, the inhibition result in series [1] is “Active”.
`CCOC(=O)CSc1ncccc1[N+](=O)[O-]`: the result in series [2], in series [4] and in series [6] was Active. Further, in series [3], the inhibition result is “Active”. Moreover, the Activity entry in series [5] is recorded as “Non-toxic”.
Take `CN(C)CCCN1c2ccccc2CCc2ccccc21`: in series [7], the outcome was Active.
Take `CCOC(=O)CSc1ccc([N+](=O)[O-])c(SCC(=O)OCC)n1`: the outcome in series [2] was inactive. Besides, the result in series [4] and in series [6] was Active. Further, the Activity entry in series [5] is reported as “Non-toxic”. The inhibition entry in series [8] was “inactive”.
`CCOC(=O)CSc1nc(Cl)ccc1[N+](=O)[O-]`: the result in series [2] was inactive. The outcome in series [4] and in series [6] was Active. Also, the Activity result in series [5] is “Non-toxic”. In addition, in series [8], the inhibition result was “inactive”.
